Data as given in publication PMC13172357 (Nature Communications, 2026).

Key:
Panc89 cells [1] = experiment: Confluence measurement (cell growth), Panc89; format: cell-based, human; details: Panc89, 1-10 µM, 72 h, 25 mM or 5 mM D-glucose
Panc89 cells [2] = experiment: Total proteome analysis, DDA mass spectrometry, Panc89 cells; format: cell-based, H. sapiens; details: DDA Panc89, 1 µM
Procedure: (§1) Following treatment, cells were harvested, washed twice with PBS, and pellets were flash frozen in liquid nitrogen before being stored at −80 °C. Samples were prepared using the single-pot, solid-phase-enhanced sample-preparation (SP3) strategy. All buffers and solutions were prepared with mass spectrometry (MS)-grade water (Honeywell). Cell pellets were taken up in 100 µL 1x sample buffer (50 mM Hepes pH 8.0, 1% (wt/v) SDS, 1% (v/v) NP-40, 10 mM TCEP, 40 mM chloroacetamide) and samples were heated at 90 °C for 5 min prior to sonication with a Bioruptor UCD-300 (Diagenode) for ten cycles of 1 min pulse and 30 s pause at high power. The samples were then supplemented with Benzonase (20 U/sample) and sonified for 5 min in a water bath (Bandelin) followed by 30 min incubation at […].
(§2) The protein extracts were then centrifuged (20000 ×g, RT, 40 min) and the protein concentration of the cleared lysates was determined using the Pierce 660 nm Protein Assay Reagent (#22660; Thermo Scientific) with the Ionic Detergent Compatibility Reagent (#22663; Thermo Scientific) according to the manufacturers’ instructions. Next, 15 µg of total protein per sample in a volume of 100 µL sample buffer was transferred to a 500 µL 96-well plate and treated with 7 U of benzonase (#71206; Merck Millipore) in dilution buffer (20 mM Hepes pH 8.0, 2 mM MgCl2) at 37 °C for 30 min with agitation at 1500 rpm. After Benzonase treatment samples were heated to 90 °C for 5 min and after cooling down to room temperature, iodoacetamide to a final concentration of 10 mM was added for complete alkylation of cysteines (37 °C, 15 min, 1000 rpm, in the dark).
(§3) Then, 3 µL of a 50 µg/µL 1:1 mixture of hydrophilic (#45152105050250) and hydrophobic (#65152105050250) carboxylate modified Sera-Mag SpeedBeads (Cytiva), that were washed twice with MS-grade water, were added to the samples. The next steps were carried out at room temperature unless noted otherwise. Afterwards, the samples were mixed shortly (1 min, 1000 rpm) and collected by short centrifugation (10 s, 200 ×g). […]

USP7 = biological target: T1, USP7 (Homo sapiens, UniProt Q93009); experiment: Immunofluorescence staining of USP7, Panc89 cells; format: cell-based; details: Panc89, 1 µM, 24 h
T1 construct: allowed the analysis of endogenous USP7 degradation in both cell lines; endogenous in cells; host or cells: Panc89 (PDAC) and Ma-Mel-47 (melanoma) cells
Procedure: Panc89 cells were seeded on 96-well plates (89626, Ibidi) and treated with either DMSO or compound for the indicated time and concentration. Cells were then fixed with 4% PFA in PBS for 20 min, permeabilized with 0.1% Triton X-100 in PBS for 10 min and incubated in blocking buffer containing 2% BSA in PBS for 1 h. Three 10 min washes with PBS were performed between different steps. Cells were treated with primary antibody anti-USP7 (ab190183, Abcam, rabbit, 1:500) in blocking solution for 1 h at RT. […] Finally, cells were stained with DAPI (Invitrogen, 1 µg/mL) in PBS for 10 min and mounted with aqueous mounting medium (50001, Ibidi) for microscopy. Plates were imaged on a fully automated inverted EVOS M7000 microscope system (Invitrogen) with X-Apo 20x air objective (0.8 NA, Olympus, AMEP4906) using DAPI (AMEP4950), GFP (AMEP4951), RFP (AMEP4952), and Cy5 (AMEP4956) LED light cubes. Images were captured using a high-sensitivity 3.2 MP monochrome CMOS camera and were processed with Omero (v. web 5.28.0).

Ma-Mel-47 cells = experiment: Total proteome analysis, DIA mass spectrometry, Ma-Mel-47 cells; format: cell-based, H. sapiens; details: DIA Ma-Mel-47, 1 µM
Procedure: as §1, §2, §3

T1 sequence (Q93009 whole entry): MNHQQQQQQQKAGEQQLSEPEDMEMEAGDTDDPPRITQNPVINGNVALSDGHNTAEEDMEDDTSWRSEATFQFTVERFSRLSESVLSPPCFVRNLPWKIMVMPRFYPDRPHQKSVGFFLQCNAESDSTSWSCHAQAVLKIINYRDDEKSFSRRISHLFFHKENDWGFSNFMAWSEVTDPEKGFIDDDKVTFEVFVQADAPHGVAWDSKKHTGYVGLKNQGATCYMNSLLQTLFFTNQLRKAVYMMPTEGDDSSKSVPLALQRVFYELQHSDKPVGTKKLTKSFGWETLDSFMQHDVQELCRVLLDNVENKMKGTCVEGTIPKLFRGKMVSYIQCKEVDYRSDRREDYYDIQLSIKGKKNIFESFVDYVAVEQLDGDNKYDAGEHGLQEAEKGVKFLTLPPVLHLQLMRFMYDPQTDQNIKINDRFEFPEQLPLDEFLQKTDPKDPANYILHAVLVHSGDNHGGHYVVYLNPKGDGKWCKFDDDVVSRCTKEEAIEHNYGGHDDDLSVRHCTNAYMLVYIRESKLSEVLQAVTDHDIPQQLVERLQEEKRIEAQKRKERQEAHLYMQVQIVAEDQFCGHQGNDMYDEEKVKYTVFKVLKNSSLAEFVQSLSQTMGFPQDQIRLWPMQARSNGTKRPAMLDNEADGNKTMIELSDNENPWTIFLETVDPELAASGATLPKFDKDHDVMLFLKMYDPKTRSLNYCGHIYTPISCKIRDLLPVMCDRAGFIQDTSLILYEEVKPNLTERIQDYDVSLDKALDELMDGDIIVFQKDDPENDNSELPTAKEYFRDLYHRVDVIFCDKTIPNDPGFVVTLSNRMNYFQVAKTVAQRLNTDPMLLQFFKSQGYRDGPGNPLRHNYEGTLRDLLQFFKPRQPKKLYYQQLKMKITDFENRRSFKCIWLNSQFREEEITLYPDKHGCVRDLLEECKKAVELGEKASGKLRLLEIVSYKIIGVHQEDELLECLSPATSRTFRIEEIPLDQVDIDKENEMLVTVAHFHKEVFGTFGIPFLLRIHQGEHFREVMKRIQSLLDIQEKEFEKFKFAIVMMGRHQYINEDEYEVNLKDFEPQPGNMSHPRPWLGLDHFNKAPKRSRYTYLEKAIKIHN

SMILES: Cc1ncsc1-c1ccc([C@H](C)NC(=O)[C@@H]2C[C@@H](O)CN2C(=O)[C@@H](NC(=O)[C@H]2CC[C@H](C(=O)N3CCN(c4ccc(-n5ncc6c(=O)n(CC7(O)CCN(C(=O)C[C@@H](C)c8ccccc8)CC7)cnc65)cc4)CC3)CC2)C(C)(C)C)cc1 [NK250]
- Cell growth (in words) (Panc89 cells [1]): not affected
- Proteins significantly decreased (in words) (Panc89 cells [2]; 6 h): USP7 was the only protein significantly decreased
- Reduction of USP7 protein levels (Panc89 cells [2]; after three days): more than 100 fold
- USP7 immunofluorescence signal (in words) (USP7): strongly reduced

SMILES: Cc1ncsc1-c1ccc([C@H](C)NC(=O)[C@@H]2C[C@@H](O)CN2C(=O)[C@@H](NC(=O)C23C4C5C2C2C3C4C52C(=O)N2CCC(C3CCN(c4ccc(-n5ncc6c(=O)n(CC7(O)CCN(C(=O)C[C@@H](C)c8ccccc8)CC7)cnc65)cc4)CC3)CC2)C(C)(C)C)cc1 (stereo partly shown) [NK266]
- USP7 protein level change (in words) (Ma-Mel-47 cells; 6 h): only minimal reduction
- USP7 protein level change (in words) (Ma-Mel-47 cells; 24 h): the most decreased protein

SMILES: Cc1ncsc1-c1ccc(CNC(=O)[C@@H]2C[C@H](O)CN2C(=O)[C@@H](NC(=O)[C@H]2CC[C@H](C(=O)N3CCN(c4ccc(-n5ncc6c(=O)n(CC7(O)CCN(C(=O)C[C@@H](C)c8ccccc8)CC7)cnc65)cc4)CC3)CC2)C(C)(C)C)cc1 [NK245]
- Changes to the proteome (in words) (Ma-Mel-47 cells; 72 h): only showed minimal changes to the proteome
